These results are taken from US11406645B2, “Acetamide thienotriazolodiazepines and uses thereof” (Dana-Farber Cancer Institute, Inc., priority 2015, dated 2022).

The conditions of series [1]: male, CD1, mouse, in vivo.
Experimental: (§1) Pharmacokinetic parameters were determined by administration of a candidate bromodomain inhibitor to male CD1 mice. Intravenous doses were delivered at 5 mg/kg, and oral doses at 10 mg/kg (N=3). […] The compound concentration in mouse blood was monitored over 24-hour time period to check the compound concentration in blood at 5 min, 30 min, 1 hour, 2 hours, 6 hours, 12 hours, and 24 hour via a series bleeding.
Series [2] can be described thus: Pharmacokinetics in male CD1 mice, oral administration (whole blood). The following applies: oral 10 mg/kg, N=3, whole blood.
Experimental: as §1

With `Cc1sc2c(c1C)C(c1ccc(Cl)cc1)=N[C@@H](CC(=O)NCCCN1CCC(N3CCCCC3)CC1)c1nnc(C)n1-2` [Compound 602], the F in series [1] is on record as 2%.
Compound `Cc1sc2c(c1C)C(c1ccc(Cl)cc1)=N[C@@H](CC(=O)N1CCn3c(nnc3C(F)(F)F)C1)c1nnc(C)n1-2` [Compound 605] yielded a F in series [1] of 6%.
In series [1], `Cc1sc2c(c1C)C(c1ccc(Cl)cc1)=N[C@@H](CC(=O)NCCCN1CCCC1)c1nnc(C)n1-2` [Compound 604] showed an F of 7%.
With `Cc1sc2c(c1C)C(c1ccc(Cl)cc1)=N[C@@H](CC(=O)NCC1CCN(CCN(C)C)CC1)c1nnc(C)n1-2` [Compound 601], in series [1], the F is 4%.
The compound `Cc1sc2c(c1C)C(c1ccc(Cl)cc1)=N[C@@H](CC(=O)N1CCC(N3CCCCC3)CC1)c1nnc(C)n1-2` [Compound 603] gave a F in series [1] of 20%.
Usually Tmax stands for the time from dosing to the highest level. Turning to `Cc1sc2c(c1C)C(c1ccc(Cl)cc1)=N[C@@H](CC(=O)OC(C)(C)C)c1nnc(C)n1-2` [JQ1], the Tmax in series [2] was 15 min.
